# Measurements from the supplement of paper PMC11208160.
# Test: recombinant UMI read abundance after kanamycin selection (control-corrected) (log10(CPM+1)); higher = more efficient recombination; extreme values may be limits of the assay; sequences stand for … in AGTGCAGAGAAAATCGGCCAGTTTTCTCTGCCTGCAGTCCGCATGCCGTGGGACCCCTTGGGTTCTAACCTGTTGCCTAGATTTATGCAGCGGACTGCCTTTCTCCCAAAGTGATAAACCGG…AGGTTGGTTTCACT; site = the 11-nt donor
# In short: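 In a pooled Escherichia coli screen for the IS621 bridge recombinase, donor and donor-binding-loop pairs were each placed with a 12-nt UMI on a plasmid bearing a promoterless kanamycin gene. This library was co-electroporated with a target plasmid encoding a fixed target and T7-inducible recombinase, and cells were plated either on IPTG (0.07 mM) plus kanamycin or without selection, in two replicates each. Recombinant UMIs were PCR-amplified across the donor–target junction and sequenced, and counts were converted to CPM, averaged over replicates, scaled by control-derived factors and reported as log10(CPM+1).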
row,Sequence,recombinant UMI read abundance (log10)
1,CACTTGACATGGACCGGTTTTCCCGGTAATCCGTATTTGGA (site CACTTGACTTC),0.194
2,CACTTGACATGGACCGGTTTTCCCGGTAATCCGTATTTGGA (site CACTTGCCTTC),0.0198
3,CACTTGACATGGACCGGTTTTCCCGGTAATCCGTATTTGGA (site CACTTGGCTTC),0.369
4,CACTTGACATGGACCGGTTTTCCCGGTAATCCGTATTTGGA (site CACTTGTCTTC),0.138
5,CACTTGGCATGGACCGGTTTTCCCGGTAATCCGTATTTGAA (site CACTTGGCTTA),0.431
6,CACTTGGCATGGACCGGTTTTCCCGGTAATCCGTATTTGAA (site CACTTGGCTTC),0.236
7,CACTTGGCATGGACCGGTTTTCCCGGTAATCCGTATTTGAA (site CACTTGGCTTG),1.05
8,CACTTGGCATGGACCGGTTTTCCCGGTAATCCGTATTTGAA (site CACTTGGCTTT),1.33
9,CACTTGGCATGGACCGGTTTTCCCGGTAATCCGTATTTGGT (site CACTTGGCTAC),1.79
10,CACTTGGCATGGACCGGTTTTCCCGGTAATCCGTATTTGGT (site CACTTGGCTCC),0.103
11,CACTTGGCATGGACCGGTTTTCCCGGTAATCCGTATTTGGT (site CACTTGGCTGC),1.88
12,CACTTGGCATGGACCGGTTTTCCCGGTAATCCGTATTTGGT (site CACTTGGCTTC),0.0133
13,CACTTGGCATGGACCGGTTTTCCCGGTAATCCGTATTTGTA (site CACTTGGCTTA),1.46
14,CACTTGGCATGGACCGGTTTTCCCGGTAATCCGTATTTGTA (site CACTTGGCTTC),0.00904
15,CACTTGGCATGGACCGGTTTTCCCGGTAATCCGTATTTGTA (site CACTTGGCTTG),1.47
16,CACTTGGCATGGACCGGTTTTCCCGGTAATCCGTATTTGTA (site CACTTGGCTTT),0.75
17,CACTTTCCATGGACCGGTTTTCCCGGTAATCCGTATTTGAG (site CACTTTCCTCT),0.0778
18,CACTTTGCATGGACCGGTTTTCCCGGTAATCCGTATTTGGA (site CACTTAGCTTC),0.0269
19,CACTTTGCATGGACCGGTTTTCCCGGTAATCCGTATTTGGA (site CACTTCGCTTC),0.0129
20,CACTTTGCATGGACCGGTTTTCCCGGTAATCCGTATTTGGA (site CACTTGGCTTC),0.0264
21,CACTTTGCATGGACCGGTTTTCCCGGTAATCCGTATTTGGA (site CACTTTGCTTC),1.71
22,CAGAACCCATGGACCGGTTTTCCCGGTAATCCGTATTTGCC (site CAGAACCCTGG),0
23,CAGAATCCATGGACCGGTTTTCCCGGTAATCCGTATTTGAT (site CAGAATCCTAT),1.84
24,CAGAATCCATGGACCGGTTTTCCCGGTAATCCGTATTTGAT (site CGGAATCCTAA),0
25,CAGAATCCATGGACCGGTTTTCCCGGTAATCCGTATTTGTT (site CAGAATCCTAA),2.07

row,Sequence,recombinant UMI read abundance (log10)
1,CAGAATCCATGGACCGGTTTTCCCGGTAATCCGTATTTGTT (site CCGAATCCTAA),0
2,CAGAATCCATGGACCGGTTTTCCCGGTAATCCGTATTTGTT (site CGGAATCCTAA),0.0121
3,CAGAATCCATGGACCGGTTTTCCCGGTAATCCGTATTTGTT (site CTGAATCCTAA),0
4,CAGAGGCCATGGACCGGTTTTCCCGGTAATCCGTATTTGCT (site CAGAGGCCTAG),1.68
5,CAGAGTCCATGGACCGGTTTTCCCGGTAATCCGTATTTGCC (site CAGAGTCCTGG),1.8
6,CAGAGTCCATGGACCGGTTTTCCCGGTAATCCGTATTTGTT (site CAGAGTCCTAA),1.92
7,CAGAGTCCATGGACCGGTTTTCCCGGTAATCCGTATTTGTT (site CGGAATCCTAA),0
8,CAGATAACATGGACCGGTTTTCCCGGTAATCCGTATTTGGG (site CAGATAACTCC),1.1
9,CAGCAACCATGGACCGGTTTTCCCGGTAATCCGTATTTGCA (site CAGCAACCTTG),0
10,CAGCAATCATGGACCGGTTTTCCCGGTAATCCGTATTTGGT (site CAGCAATCTAC),2.73
11,CAGCCTTCATGGACCGGTTTTCCCGGTAATCCGTATTTGGT (site AAGCCTTCTAC),0
12,CAGCCTTCATGGACCGGTTTTCCCGGTAATCCGTATTTGGT (site CAGCCTTCTAC),0.949
13,CAGCCTTCATGGACCGGTTTTCCCGGTAATCCGTATTTGGT (site GAGCCTTCTAC),0.00376
14,CAGCCTTCATGGACCGGTTTTCCCGGTAATCCGTATTTGGT (site TAGCCTTCTAC),0.0206
15,CAGCCTTCATGGACCGGTTTTCCCGGTAATCCGTATTTGTG (site CAGCCTTCTCA),0.108
16,CAGCGTGCATGGACCGGTTTTCCCGGTAATCCGTATTTGCT (site CAGCGTGCTAG),2.76
17,CAGCTAGCATGGACCGGTTTTCCCGGTAATCCGTATTTGAA (site AAGCTAGCTTT),0.0151
18,CAGCTAGCATGGACCGGTTTTCCCGGTAATCCGTATTTGAA (site CAGCTAGCTTT),2.54
19,CAGCTAGCATGGACCGGTTTTCCCGGTAATCCGTATTTGAA (site GAGCTAGCTTT),0.0499
20,CAGCTAGCATGGACCGGTTTTCCCGGTAATCCGTATTTGAA (site TAGCTAGCTTT),0.596
21,CAGGCAACATGGACCGGTTTTCCCGGTAATCCGTATTTGTG (site CAGGCAACTCA),0.912
22,CAGGCGCCATGGACCGGTTTTCCCGGTAATCCGTATTTGTG (site CAAGCGCCTCA),0.0213
23,CAGGCGCCATGGACCGGTTTTCCCGGTAATCCGTATTTGTG (site CACGCGCCTCA),0
24,CAGGCGCCATGGACCGGTTTTCCCGGTAATCCGTATTTGTG (site CAGGCGCCTCA),0.428
25,CAGGCGCCATGGACCGGTTTTCCCGGTAATCCGTATTTGTG (site CATGCGCCTCA),0.0319

row,Sequence,recombinant UMI read abundance (log10)
1,CAGGGCCCATGGACCGGTTTTCCCGGTAATCCGTATTTGCA (site CAGGGCCCTTG),1.24
2,CAGGGCCCATGGACCGGTTTTCCCGGTAATCCGTATTTGTT (site CAAGGCCCTAA),0
3,CAGGGCCCATGGACCGGTTTTCCCGGTAATCCGTATTTGTT (site CACGGCCCTAA),0.025
4,CAGGGCCCATGGACCGGTTTTCCCGGTAATCCGTATTTGTT (site CAGGGCCCTAA),0.381
5,CAGGGCCCATGGACCGGTTTTCCCGGTAATCCGTATTTGTT (site CATGGCCCTAA),0.00426
6,CAGGGCTCATGGACCGGTTTTCCCGGTAATCCGTATTTGTT (site CAGGGCTCTAA),2.71
7,CAGGTTCCATGGACCGGTTTTCCCGGTAATCCGTATTTGAA (site CAGGTTCCTTT),1.98
8,CAGGTTGCATGGACCGGTTTTCCCGGTAATCCGTATTTGGC (site CAGGTTGCTGC),2.08
9,CAGTAAGCATGGACCGGTTTTCCCGGTAATCCGTATTTGTG (site CAGTAAGCTCA),2.41
10,CAGTCCACATGGACCGGTTTTCCCGGTAATCCGTATTTGGG (site CAGTCAACTCC),0.00382
11,CAGTCCACATGGACCGGTTTTCCCGGTAATCCGTATTTGGG (site CAGTCCACTCC),0.00714
12,CAGTCCACATGGACCGGTTTTCCCGGTAATCCGTATTTGGG (site CAGTCGACTCC),0.024
13,CAGTCCACATGGACCGGTTTTCCCGGTAATCCGTATTTGGG (site CAGTCTACTCC),0
14,CAGTCCGCATGGACCGGTTTTCCCGGTAATCCGTATTTGCT (site CAGTCCGCTAG),2.64
15,CAGTCCTCATGGACCGGTTTTCCCGGTAATCCGTATTTGCC (site CAATCCTCTGG),2.78
16,CAGTCCTCATGGACCGGTTTTCCCGGTAATCCGTATTTGCC (site CACTCCTCTGG),2.05
17,CAGTCCTCATGGACCGGTTTTCCCGGTAATCCGTATTTGCC (site CAGTCCTCTGG),2.38
18,CAGTCCTCATGGACCGGTTTTCCCGGTAATCCGTATTTGCC (site CATTCCTCTGG),0.879
19,CAGTCGACATGGACCGGTTTTCCCGGTAATCCGTATTTGTG (site CAGTCGACTCA),0.661
20,CAGTCGACATGGACCGGTTTTCCCGGTAATCCGTATTTGTG (site CAGTCGACTCC),0.022
21,CAGTCGACATGGACCGGTTTTCCCGGTAATCCGTATTTGTG (site CAGTCGACTCG),0.00379
22,CAGTCGACATGGACCGGTTTTCCCGGTAATCCGTATTTGTG (site CAGTCGACTCT),0.00896
23,CAGTCGTCATGGACCGGTTTTCCCGGTAATCCGTATTTGGG (site CAGTCGACTCC),0.00913
24,CAGTCGTCATGGACCGGTTTTCCCGGTAATCCGTATTTGGG (site CAGTCGCCTCC),0.0207
25,CAGTCGTCATGGACCGGTTTTCCCGGTAATCCGTATTTGGG (site CAGTCGGCTCC),0.0122
